# Data published in patent US8011774B2, “Azo dye, colored composition, heat-sensitive transfer recording ink sheet, heat-sensitive transfer recording method, color toner, inkjet ink and color filter” (Fujifilm Corporation, priority 2006, dated 2011).
# What was measured:
# Assay type in all cases: physicochemical
# [1] = Light stability (light resistance) of transferred dye image under Xenon light; details: Xenon light 17,000 lux, 7 days; residual ratio of Status A reflection density 1.0
# Protocol: Next, each of the thus image-recorded thermal transfer image-receiving material was exposed to Xenon light (17,000 lux) for 7 days to examine light stability (light resistance) of the dye image. Status A reflection densities after exposure were measured in the portions indicating status A reflection density of 1.0. A stability of the image was evaluated in terms of a residual ratio (percentage) based on the reflection destiny before exposure according to the following three grades:
# A: 80% or more, but 100% or less
# B: 60% or more, but […]
# [2] = Solubility of dye when preparing ink sheet dye-providing layer coating composition; design: key: A: The dye easily dissolves.; B: The dye dissolves.; C: The dye is sparingly soluble, but dissolves; details: dye 5.5 parts, polyvinylbutyral resin, methyl ethyl ketone/toluene (1/1) coating composition
# Protocol: As a support, was used a 6 μm thick polyester film, a back surface of which had been subjected to a heat resistant lubricating processing with a 1 μm thick thermosetting acrylic resin (Lumirror (trade name), a product of Toray). On the front surface of the support, the following dye-providing layer-coating composition was coated by a wire bar coating so that a dry thinness of the dye-providing layer became 1 μm. Thus, Ink sheet 1 was prepared.
# Solubility of these dyes contained in these ink sheets were evaluated according to the following three grades;
# A: The dye easily dissolves.
# C: The dye is sparingly soluble, but dissolves.
# [3] = Deposition of dye with lapse of time in the ink sheet, examined by eye; design: key: A: No precipitation is observed.; B: Precipitation is slightly observed.; C: Precipitation is apparently observed; details: deposition of dye with a lapse of time in the ink sheet
# From the text: Further, deposition of dyes with a lapse of time in the ink sheet was examined by a native eye, thereby to evaluate based on the following three grades:
# A: No precipitation is observed.
# B: Precipitation is slightly observed.
# C: Precipitation is apparently observed.
# [4] = Maximum absorption wavelength of absorption spectrum in ethyl acetate solution; details: 1×10^−6 mol/L, optical path length 10 mm
# Protocol: A mixture of 3.53 g of Intermediate (7a) (0.01 mol), 2.76 g of potassium carbonate (0.02 mol) and dimethylacetamide (15 ml) was stirred at 0° C. To the mixture was gradually dropped 4.23 g (0.03 mol) of methyl iodide. After stirring for 3 hours at room temperature, 50 ml of water was added thereto. After extraction with 50 ml of ethyl acetate, the extracted solution was washed with saturated brine. Then, the extracted solution was concentrated with a rotary evaporator. Thus-obtained residue was purified using a silica gel chromatography (developing solvent: ethyl acetate/hexane=1/4, v/v). A yellow powder of Exemplified compound (7) was obtained. Yield: 3.01 g (82%), Melting Point: 192° C. λmax (ethyl acetate solution) of the Exemplified compound (7) was 442 nm.
# Exemplified compounds (1), (5), (8), (9), (10), (13) and (23) were synthesized in the manner described above. In Table 1 shown below, are indicated the maximum absorption wavelength in each of absorption spectra of the thus-obtained Exemplified compounds (1), (5), (8), (9), (10), (13) and (23) in an ethyl acetate solution (Density: 1×10^−6 mol/L, Optical path length: 10 mm) and melting points of these compounds, together with the Exemplified compounds (7) obtained in the Synthesis Examples.
smiles,measurement,setting,value
Cc1nn(C)c2c(/N=N/c3nc4ccccc4n3C)c(C(C)(C)C)nn12 [Dye (14)],Light resistance,[1],"A (80% or more, but 100% or less)"
same,Solubility,[2],A
same,Precipitation,[3],A
Cc1nn2nc(C(C)(C)C)c(N=Nc3c(C#N)c(C(C)(C)C)nn3C)c2n1C [Dye (1)],Light resistance,[1],"A (80% or more, but 100% or less)"
same,Solubility,[2],A
same,Maximum absorption wavelength,[4],434 nm
same,Precipitation,[3],A
"CCSc1nnc(N=Nc2c(C(C)(C)C)nn3c(C(C)C)n[nH]c23)s1 [Dye for Comparison 1, reference compound]",Light resistance,[1],"B (60% or more, but less than 100%)"
same,Solubility,[2],B
same,Precipitation,[3],B
CCSc1nnc(/N=N/c2c(C(C)(C)C)nn3c(C(C)C)nn(CC)c23)s1 [Dye (23)],Light resistance,[1],"A (80% or more, but 100% or less)"
same,Solubility,[2],A
same,Maximum absorption wavelength,[4],449 nm
same,Precipitation,[3],A
CCSc1nnc(/N=N/c2c(C(C)(C)C)nn3nc(C(C)C)n(C)c23)s1 [Dye (28)],Light resistance,[1],"A (80% or more, but 100% or less)"
same,Solubility,[2],A
same,Precipitation,[3],A
CC(C)c1nn(C)c2c(/N=N/c3c(C#N)c(C(C)(C)C)nn3C)c(C(C)(C)C)nn12 [Dye (10)],Light resistance,[1],"A (80% or more, but 100% or less)"
same,Solubility,[2],A
same,Maximum absorption wavelength,[4],443 nm
same,Precipitation,[3],A
CCc1nn(C)c2c(/N=N/c3c(C#N)c(C(C)(C)C)nn3C)c(C(C)(C)C)nn12 [Dye (9)],Light resistance,[1],"A (80% or more, but 100% or less)"
same,Solubility,[2],A
same,Maximum absorption wavelength,[4],441 nm
same,Precipitation,[3],A
Cc1nsc(/N=N/c2c(C(C)(C)C)nn3c(C(C)C)nn(C)c23)c1C#N [Dye (13)],Maximum absorption wavelength,[4],471 nm
CCn1nc(C(C)(C)C)c(C#N)c1/N=N/c1c(C(C)(C)C)nn2c(C)nn(CC)c12 [Dye (8)],Light resistance,[1],"A (80% or more, but 100% or less)"
same,Solubility,[2],A
same,Maximum absorption wavelength,[4],441 nm
same,Precipitation,[3],A
Cc1nn(C)c2c(N=Nc3c(C#N)c(C(C)(C)C)nn3C)c(C(C)(C)C)nn12 [Dye (7)],Light resistance,[1],"A (80% or more, but 100% or less)"
same,Solubility,[2],A
same,Maximum absorption wavelength,[4],442 nm
same,Precipitation,[3],A
"CCN(CCOc1ccc(C2CCCCC2)cc1)c1ccc(C=C(C#N)C#N)cc1 [Dye for Comparison 3, reference compound]",Light resistance,[1],C (less than 60%)
same,Solubility,[2],A
same,Precipitation,[3],A
